# Laboratory results taken from US20210322376A1, “METHODS FOR REDUCING THE RISK OF DIABETES IN PATIENTS BEING TREATED FOR HIGH CHOLESTEROL-RELATED ILLNESSES” (Esperion Therapeutics, Inc., priority 2018, published 2021).
# Key:
# [1] = Example 1: bempedoic acid vs placebo, patients with a history of diabetes on MTD statin, 52 weeks (HbA1c, fasting glucose); assay type: in vivo, human; details: background MTD statin (50% high intensity), FIG. 2 and FIG. 3
# Description: (§1) Patients with diabetes were identified primarily through medical history and/or baseline lab results. No entry restrictions were placed on these patients with the exception of having a HbA1c <10% during screening. The use of background concomitant medications related to diabetes treatment was captured at the study outset. Changes in all concomitant medications were tracked during the treatment phase. No restrictions were placed on changes in diabetes medications (stopping, starting, or changing dose) during the trial.
# 2230 total patients were receiving background MTD statin (50% high intensity) for 52 weeks. […] Patients were treated with bempedoic acid or placebo. The baseline HbA1c levels for patients receiving bempedoic acid was 6.85%, and the baseline HbA1c levels for patients receiving placebo was 6.89%. The baseline fasting glucose levels for patients receiving bempedoic acid was 131.4 mg/dl. The baseline fasting glucose levels for patients receiving placebo was 130.6 mg/dl. Changes in HbA1c levels were measured at week 12 and week 52 and changes in fasting glucose levels were measured at weeks 4, 8, 12, 24, and 36 and 52.
# [2] = Example 3: bempedoic acid vs placebo, statin-intolerant patients on background ezetimibe, 12 weeks; assay type: in vivo, human; details: statin intolerant (31% low/very low dose statin), FIG. 6 and FIG. 7
# Description: as §1
# 269 total patients with statin intolerance (31% low/very dose statin) were treated for 12 weeks; all patients on background ezetimibe therapy. […] Patients were treated with bempedoic acid or placebo. The baseline HbA1c levels for patients receiving bempedoic acid was 6.66%, and the baseline HbA1c levels for patients receiving placebo was 6.76%. The baseline fasting glucose levels for patients receiving bempedoic acid was 133.7 mg/dl. The baseline fasting glucose levels for patients receiving placebo was 133.4 mg/dl. Changes in HbA1c levels were measured at week 12, and changes in fasting glucose levels were measured at weeks 4, 8, and 12.
# [3] = Cumulative data of Examples 1-4: new onset or worsening of diabetes; assay type: in vivo, human; details: patients taking statins plus bempedoic acid; statins plus placebo 5.6%
# [4] = Thorough QT/QTc (TQT) study of ETC-1002; assay type: in vivo
# [5] = Example 2: bempedoic acid vs placebo, statin-intolerant patients with a history of diabetes, 24 weeks; assay type: in vivo, human; details: statin intolerant (8% very low dose statin), FIG. 4 and FIG. 5
# Description: as §1
# 345 total patients with statin intolerance (8% very low dose statin) were treated for 24 weeks. […] Patients were treated with bempedoic acid or placebo. The baseline HbA1c levels for patients receiving bempedoic acid was 6.91%, and the baseline HbA1c levels for patients receiving placebo was 7.12%. The baseline fasting glucose levels for patients receiving bempedoic acid was 130.7 mg/dl. The baseline fasting glucose levels for patients receiving placebo was 139.8 mg/dl. Changes in HbA1c levels were measured at week 12 and week 24 and changes in fasting glucose levels were measured at weeks 4, 12, and 24.
# [6] = Muscle-related adverse events with add-on ETC-1002 therapy to statin therapy; assay type: in vivo
# Description: In some aspects, the subject experiences an adverse event when on one or more statins at the lowest FDA approved dose, said adverse events being selected form the group consisting of muscle-related pain, aches, weakness, and cramping.
# [7] = Pharmacokinetics of ETC-1002; details: human, in vivo
# Procedure: In some aspects, the methods herein provide for treating cardiovascular disease and/or reducing the risk of cardiovascular disease in a subject comprising administering an amount of a composition comprising ETC-1002 which is rapidly absorbed having a Tmax at less than about 4 hours.
compound,measurement,setting,value
"CC(C)(CCCCCC(O)CCCCCC(C)(C)C(=O)O)C(=O)O [ETC-1002, 8-hydroxy-2,2,14,14 tetramethylpentadecanedioic acid]","incidence of diabetes-related phenotypes, worsening of diabetes, new onset of diabetes",[1],"reduces the incidence of diabetes-related phenotypes, worsening of diabetes, and new onset of diabetes relative to placebo"
same,"incidence of diabetes-related phenotypes, worsening of diabetes, new onset of diabetes",[2],"reduces the incidence of diabetes-related phenotypes, worsening of diabetes, and new onset of diabetes relative to placebo"
same,frequency of new onset or worsening of diabetes and diabetes-related symptoms,[3],4%
same,QTc or QT/QTc prolongation,[4]; TQT study,does not prolong QTc or QT/QTc
same,heart rate and PR and QRS intervals,[4]; add-on ETC-1002 therapy,does not affect subject heart rate and PR and QRS intervals
same,"incidence of diabetes-related phenotypes, worsening of diabetes, new onset of diabetes",[5],"reduces incidence of diabetes-related phenotypes, worsening of diabetes, and new onset of diabetes relative to placebo"
same,muscle-related adverse events that began or increased during statin therapy,[6],significantly lowered or even resolved
same,Tmax,[7]; rapidly absorbed,< 4 h
same,half-life,"[7]; systemic exposure, AUCtau,ss",15 to 27 h
